Data as given in publication PMC12054364, “Structure of the Fab fragment of a humanized 5E5 antibody to a cancer-specific Tn-MUC1 epitope” (Acta Crystallographica Section D: Structural Biology, 2025).
Ends that are not written are not given here. * marks the point of attachment. αGalNAc = CC(=O)N[C@@H]1[C@@H](O)[C@@H](O)[C@@H](CO)O[C@@H]1*

Assays:
h-5E5 mAb = assay: SPR binding of PAPGS*T*AP to immobilized h-5E5 mAb; design: species or system humanized; conditions: amine-coupled mAb (∼25 000 RU), same conditions as for the Fab, steady-state
Procedure: (§1) The binding kinetics of the h-5E5 Fab to doubly glycosylated Tn-MUC1 peptides were studied by surface plasmon resonance (SPR) using a Biacore T200 instrument (GE Healthcare). All experiments were performed at 25°C with HBS-EP (10 mM HEPES, 150 mM NaCl, 3 mM EDTA, 0.005% Tween 20 pH 7.4) as the running buffer. The purified h-5E5 Fab and an irrelevant 1104 Fab were immobilized [∼10 000 resonance units (RUs) each] on a Series S Sensor Chip CM7 (Cytiva) using an amine-coupling kit (Cytiva) in 10 mM acetate buffer pH 4.0 (Cytiva). Serial dilutions of doubly glycosylated Tn-MUC1 peptides in HBS-EP buffer were injected at a flow rate of 20 µl min^−1 over flow cells containing immobilized h-5E5 Fab and the 1104 Fab (as a negative control). The reference flow cell was blocked with ethanolamine. The association time was set to 30 s and the dissociation time to 60 s. After each run, the sensor chip was regenerated with HBS-EP buffer. The concentrations of the analytes injected were 6.25, 12.5, 25, 50 and 100 µM. […] Reference flow cell subtracted sensorgrams were analyzed with BIAevaluation Software v.3.2 (Cytiva) and affinities were determined by steady-state analysis from three experimental replicates. PAPGS*T*AP binding to amine-coupled 5E5 mAb (∼25 000 RUs) was determined under the same conditions described for the Fab.

1104 Fab = assay: SPR negative control: glycopeptides over immobilized irrelevant 1104 Fab; format: binding; conditions: amine-coupled Fab 1104 (∼10 000 RU), peptide 6.25-100 µM, HBS-EP pH 7.4, 25°C
Procedure: as §1

h-5E5 Fab = assay: SPR binding of doubly glycosylated Tn-MUC1 peptides to immobilized h-5E5 Fab; design: species or system humanized
Procedure: The binding kinetics of the h-5E5 Fab to doubly glycosylated Tn-MUC1 peptides were studied by surface plasmon resonance (SPR) using a Biacore T200 instrument (GE Healthcare). All experiments were performed at 25°C with HBS-EP (10 mM HEPES, 150 mM NaCl, 3 mM EDTA, 0.005% Tween 20 pH 7.4) as the running buffer. The purified h-5E5 Fab and an irrelevant 1104 Fab were immobilized [∼10 000 resonance units (RUs) each] on a Series S Sensor Chip CM7 (Cytiva) using an amine-coupling kit (Cytiva) in 10 mM acetate buffer pH 4.0 (Cytiva). Serial dilutions of doubly glycosylated Tn-MUC1 peptides in HBS-EP buffer were injected at a flow rate of 20 µl min^−1 over flow cells containing immobilized h-5E5 Fab and the 1104 Fab (as a negative control). The reference flow cell was blocked with ethanolamine. The association time was set to 30 s and the dissociation time to 60 s. After each run, the sensor chip was regenerated with HBS-EP buffer. The concentrations of the analytes injected were 6.25, 12.5, 25, 50 and 100 µM. The analytes were two doubly glycosylated Tn-MUC1 peptides, PAPGS*T*AP and APGS*T*AP, where * represents GalNAc. Reference flow cell subtracted sensorgrams were analyzed with BIAevaluation Software v.3.2 (Cytiva) and affinities were determined by steady-state analysis from three experimental replicates. PAPGS*T*AP binding to amine-coupled 5E5 mAb (∼25 000 RUs) was determined under the same conditions described for the Fab.

[1] = molecular target: humanized 5E5 monoclonal antibody (h-5E5 mAb) (humanized from mouse | human) (UniProt P01834); assay: SPR; 5E5 mAb amine-coupled (~25 000 RU); PAPGS*T*AP flowed; same conditions as for the Fab (25°C, HBS-EP); steady-state analysis
[2] = molecular target: Fab fragment of the humanized 5E5 antibody (h-5E5 Fab) (humanized from mouse | human) (UniProt P01834); assay: SPR; Biacore T200; h-5E5 Fab amine-coupled (~10 000 RU) on a CM7 chip; glycopeptides flowed at 6.25-100 µM, 20 µl/min; 25°C; HBS-EP (10 mM HEPES, 150 mM NaCl, 3 mM EDTA, 0.005% Tween 20 pH 7.4); steady-state analysis, three replicates
[3] = immobilized h-5E5 Fab, HBS-EP pH 7.4, 25°C

Row | Kd (h-5E5 mAb) [µM] | Kd (h-5E5 Fab; Biacore T200, 25°C, HBS-EP (10 mM HEPES, 150 mM NaCl, 3 mM EDTA, 0.005% Tween 20 pH 7.4), Fab amine-coupled ∼10 000 RU on CM7 chip, peptide 6.25-100 µM, 20 µl/min, association 30 s, dissociation 60 s, steady-state analysis, three experimental replicates) [µM] | observed Rmax (h-5E5 Fab; [3]) [RU] | observed Rmax as % of the theoretical Rmax (h-5E5 Fab; [3]) [%] | Kd [1] [µM] | Kd [2] [µM] | Molecule | binding to control surface (1104 Fab)
1 | 43.9 | 40.7 ± 0.1 | 165 | 70 |  |  | PAPGS*T*AP [doubly glycosylated Tn-MUC1 peptide, where * represents GalNAc] | Neither glycopeptide bound to the control surface
2 |  |  |  |  | 43.9 | 40.7 | PAPGS(αGalNAc)T(αGalNAc)AP [doubly glycosylated Tn-MUC1 peptide PAPGS*T*AP] | 
3 |  |  |  |  |  | 60.9 | APGS(αGalNAc)T(αGalNAc)AP [doubly glycosylated Tn-MUC1 peptide APGS*T*AP] | 
